# Article PMC12801355, “Peptide Amphiphiles Hitchhike on Endogenous Biomolecules for Enhanced Cancer Imaging and Therapy” (Advanced Materials (Deerfield Beach, Fla.), 2025)
# Where a SMILES comes first, the peptide text is derived from it. The star is where a group is joined. Palmitoyl = CCCCCCCCCCCCCCCC(=O)*
# Test system: xenograft, syngeneic, transgenic and PDX tumor models
# Assay: Tumor accumulation in a broad range of tumor models
# Format: in vivo, mouse
# Details: 2 days after 50 nmol IV
# Description: For tumor accumulation studies in subcutaneous (HCT‐116, A375, TRAMP‐C2, MC38, LLC1, RG2, PDX cell lines, wild type or SR‐B1 ‐/‐ TRAMP‐C2, and wild type or LDL‐R ‐/‐ HeLa), intradermal (A375), or fat pad (4T1 and MCF‐7) tumors, cells were implanted as described above. When the tumors reached a size around ≈0.3–1 cm, mice were injected intravenously with 100 µL of ICG conjugated PAs (in PBS, 0.5 mM) or free ICG (in PBS, 0.5 mM). After probe injections, mice were imaged using the IVIS Spectrum (PerkinElmer) with excitation and emission wavelengths of 745 and 820 nm, respectively, at the specified time points. Living Image (PerkinElmer) software was used for all analyses. For MMTV mice experiments, mice were injected intravenously weekly with SA‐E (100 µL PBS, 0.5 mM) between 71 and 85 days of age and imaged 2 days later in the IVIS. […] SA‐E was injected intravenously (100 µL PBS, 0.5 mM), 2 days later the intestinal tissue was harvested, washed, and analyzed in the IVIS for ICG.
structure (smiles),measurement,value
CCCCCCCCCCCCCCCC(=O)NCC(=O)NCC(=O)NCC(=O)N[C@@H](Cc1c[nH]cn1)C(=O)N[C@@H](C)C(=O)N[C@@H](C)C(=O)N[C@@H](CC(N)=O)C(=O)NCC(=O)N[C@@H](CCC(=O)O)C(=O)N[C@@H](CCC(=O)O)C(=O)N[C@@H](CS)C(=O)N[C@@H](CCC(=O)O)C(=O)O [SA‐E] (Palmitoyl-GGGHAANGEECE-OH),tumor accumulation across models,highly specific tumor accumulation in all 13 tumor models
